Experimental data from US20040086901A1, “Database for analyzing gene function and method of analyzing gene function by dspa” (priority 2000, published 2004).

Assays:
Type in all cases: cell-based, mouse
[1] = system: NIH3T3 cells overexpressing v-src; test: MTT cell viability, v-src overexpressing cells vs parental line; details: v-src high-expressing cells / parental cell line, 3 to 4 days
Procedure, shortened: (§1)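 Stable NIH3T3 transfectants (cDNA in pRc-CMV-type vector, G-418-selected, high expressers picked by Western blot) and parental cells were seeded at 1×10^5 cells/ml into twofold serial drug dilutions and grown 3–4 days. MTT formazan was read at 574/655 nm, and log ratios of IC40 values were derived.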

[2] = system: NIH3T3 cells overexpressing STAT1; test: MTT cell viability, STAT1 overexpressing cells vs parental line; details: STAT1 high-expressing cells / parental cell line, 3 to 4 days
Procedure, shortened: (§2)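 NIH3T3 high expressers vs parental; 2-fold serial dilution of drugs (DMSO stocks), 9 points; 10% CS-DMEM; 3–4 d culture; MTT 4 h 37 °C, stop with 0.04N HCl/isopropanol; A574/655. Readout is log(IC40 ratio).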

[3] = system: NIH3T3 cells overexpressing caspase-1; test: MTT cell viability, caspase-1 overexpressing cells vs parental line; details: caspase-1 high-expressing cells / parental cell line, 3 to 4 days
Procedure, shortened: as §2

[4] = system: NIH3T3 cells overexpressing TK; test: MTT cell viability, TK overexpressing cells vs parental line; details: TK high-expressing cells / parental cell line, 3 to 4 days
Procedure, shortened: as §1

[5] = system: NIH3T3 cells overexpressing JNK-DN; test: MTT cell viability, JNK-DN overexpressing cells vs parental line; details: JNK-DN high-expressing cells / parental cell line, 3 to 4 days
Procedure, shortened: as §1

[6] = system: NIH3T3 cells overexpressing cAMP-PK-CS; test: MTT cell viability, cAMP-PK-CS overexpressing cells vs parental line; details: cAMP-PK-CS high-expressing cells / parental cell line, 3 to 4 days
Procedure, shortened: as §2

[7] = system: NIH3T3 cells overexpressing RhoA; test: MTT cell viability, RhoA overexpressing cells vs parental line; details: RhoA high-expressing cells / parental cell line, 3 to 4 days
Procedure, shortened: as §1

[8] = system: NIH3T3 cells overexpressing caspase-2; test: MTT cell viability, caspase-2 overexpressing cells vs parental line; details: caspase-2 high-expressing cells / parental cell line, 3 to 4 days
Procedure, shortened: as §1

[9] = system: NIH3T3 cells overexpressing CaMKIIa; test: MTT cell viability, CaMKIIa overexpressing cells vs parental line; details: CaMKIIa high-expressing cells / parental cell line, 3 to 4 days
Procedure, shortened: as §2

[10] = system: NIH3T3 cells overexpressing PKCalpha-KN; test: MTT cell viability, PKCalpha-KN overexpressing cells vs parental line; details: 3 to 4 days
Procedure, shortened: as §2

[11] = system: NIH3T3 cells overexpressing m-calpain; test: MTT cell viability, m-calpain overexpressing cells vs parental line; details: m-calpain high-expressing cells / parental cell line, 3 to 4 days
Procedure, shortened: as §2

[12] = system: NIH3T3 cells overexpressing calpastatin; test: MTT cell viability, calpastatin overexpressing cells vs parental line; details: calpastatin high-expressing cells / parental cell line, 3 to 4 days
Procedure, shortened: as §1

[13] = system: NIH3T3 cells overexpressing HNF1; test: MTT cell viability, HNF1 overexpressing cells vs parental line; details: HNF1 high-expressing cells / parental cell line, 3 to 4 days
Procedure, shortened: as §2

[14] = system: NIH3T3 cells overexpressing Ki-ras; test: MTT cell viability, Ki-ras overexpressing cells vs parental line; details: Ki-ras high-expressing cells / parental cell line, 3 to 4 days
Procedure, shortened: as §1

[15] = system: NIH3T3 cells overexpressing cystatin E; test: MTT cell viability, cystatin E overexpressing cells vs parental line; details: cystatin E high-expressing cells / parental cell line, 3 to 4 days
Procedure, shortened: as §1

[16] = system: NIH3T3 cells overexpressing CBP8; test: MTT cell viability, CBP8 overexpressing cells vs parental line; details: CBP8 high-expressing cells / parental cell line, 3 to 4 days
Procedure, shortened: as §1

[17] = system: NIH3T3 cells overexpressing PDGF-R; test: MTT cell viability, PDGF-R overexpressing cells vs parental line; details: PDGF-R high-expressing cells / parental cell line, 3 to 4 days
Procedure, shortened: as §1

[18] = system: NIH3T3 cells overexpressing Regucalcin; test: MTT cell viability, Regucalcin overexpressing cells vs parental line; details: Regucalcin high-expressing cells / parental cell line, 3 to 4 days
Procedure, shortened: as §1

[19] = system: NIH3T3 cells overexpressing cystatin alpha; test: MTT cell viability, cystatin alpha overexpressing cells vs parental line; details: cystatin alpha high-expressing cells / parental cell line, 3 to 4 days
Procedure, shortened: as §1

[20] = system: NIH3T3 cells overexpressing N-ras; test: MTT cell viability, N-ras overexpressing cells vs parental line; details: N-ras high-expressing cells / parental cell line, 3 to 4 days
Procedure, shortened: as §1

[21] = PKCalpha-KN (first of two lines) high-expressing cells / parental cell line
[22] = PKCalpha-KN (second of two lines) high-expressing cells / parental cell line

Row | Compound | logarithmic value of ratio of IC40 values [1] | logarithmic value of ratio of IC40 values [2] | logarithmic value of ratio of IC40 values [3] | logarithmic value of ratio of IC40 values [4] | logarithmic value of ratio of IC40 values [5] | logarithmic value of ratio of IC40 values [6] | logarithmic value of ratio of IC40 values [7] | logarithmic value of ratio of IC40 values [8] | logarithmic value of ratio of IC40 values [9] | logarithmic value of ratio of IC40 values [10, 21] | logarithmic value of ratio of IC40 values [10, 22] | logarithmic value of ratio of IC40 values [11] | logarithmic value of ratio of IC40 values [12] | logarithmic value of ratio of IC40 values [13] | logarithmic value of ratio of IC40 values [14] | logarithmic value of ratio of IC40 values [15] | logarithmic value of ratio of IC40 values [16] | logarithmic value of ratio of IC40 values [17] | logarithmic value of ratio of IC40 values [18] | logarithmic value of ratio of IC40 values [19] | further results
1 | COC[C@H]1OC(=O)c2coc3c2[C@@]1(C)C1=C(C3=O)[C@@H]2CCC(=O)[C@@]2(C)C[C@H]1OC(C)=O [Wortmannin, wortmannin] | 0.08 | 0.00 | 0.20 | 0.00 | −0.09 | −0.07 | 0.24 | 0.52 | −0.15 | 0.41 | −0.06 | 0.18 | −0.14 | 0.16 | 0.34 | 0.00 | 0.14 | 0.00 | −0.28 | 0.45 | logarithmic value of ratio of IC40 values [20]: 0.14
2 | C=C[C@]1(C)CC[C@@H](C(=C)C)C[C@H]1C(=C)C [b-elemene, β-elemene] | −0.35 | 0.05 | 0.11 | −0.14 | −0.04 | −0.10 | 0.00 | 0.26 | 0.16 | 0.07 | −0.07 | 0.00 | 0.18 | 0.02 | −0.10 | 0.07 | 0.06 | 0.00 | −0.09 | 0.08 | logarithmic value of ratio of IC40 values [20]: 0.07
3 | ICE inhibitor-III [ICEin-3] | −0.14 | 0.09 | 0.11 | −0.15 | 0.00 | 0.00 | 0.19 | 0.04 | 0.00 | 0.12 | 0.33 | −0.06 | −0.088 | 0.20 | 0.30 | 0.07 | 0.18 | 0.20 | 0.00 | 0.32 | logarithmic value of ratio of IC40 values [20]: 0.38
4 | sodium vanadate | 0.00 | 0.00 | −0.11 | 0.16 | −0.17 | 0.00 | 0.28 | 0.40 | −0.13 | 0.23 | 0.08 | −0.10 | 0.00 | 0.046 | −0.30 | 0.20 | 0.03 | 0.22 | 0.00 | 0.08 | logarithmic value of ratio of IC40 values [20]: −0.09
